Assay [1] deals with Human gastric cancer cell line MGC803. As to the kind of experiment: Inhibition of MGC803 tumor cell proliferation (CellTiter luminescent viability). Type of assay: cell-based. The note with it: MGC803, 96 hours, read-out: Inhibitory activity (IC50, nM) on tumor cell proliferation, MGC803. On the procedure:
(§1) The tumor cells used herein were cultured in a cell culture medium listed in table 3 at 37 °C in an incubator with 5% CO2. Prior to experimentation, all cell lines used were correctly identified by STR profiling, and tested negative for mycoplasma contamination using a mycoplasma detection kit through routine screenings.
(§2) The IC50 values of the compounds of the present disclosure (including the compounds in Table 1, Table 2, and Examples 1-468) were determined using the CellTiter-Meiluncell Luminescent Cell Viability Assay Kit from Dalian Meilun Biotech Co., Ltd. The detailed procedure is as follows: Tumor cells were seeded in 96-well cell culture plates at the densities specified in Table 4. On the following day, the test compounds of the present disclosure were subjected to serial dilution. The dilution can be performed according to one of the following two methods: • (1) The first dilution method: The test compounds of the present disclosure (including the compounds in Table 1, Table 2, and Examples 1-468) were subjected to 5-fold serial dilutions starting from a highest concentration of 2000 μM, resulting in a total of 9 concentrations from high to low (2000, 400, 80, 16, 3.2, 0.64, 0.128, 0.0256, 0.00512 μM). Subsequently, 0.5 μL of the test compound dilution was transferred into the 96-well plate containing the cells, with each well containing 100 μL of cell culture medium. […] Into the 96-well plate, the diluted test compounds and corresponding detection reagents were added, resulting in final test compound concentrations of 500 nM and 10 nM, respectively. The experimental procedure is described below using the diluted 2 μM test compound as an example.
(§3) 0.5 μL of the aforementioned diluted compound of the present disclosure (including the compounds in Table 1, Table 2, and Examples 1-468) was added to the seeded cells in 100 μL of medium, yielding a final test compound concentration of 10 nM. After the cells were treated with the compounds of the present disclosure for a specified period, the cell viability assay reagent was added to the culture medium according to the kit's instructions to determine cell viability. […] All controls were treated using the same procedure as the compounds of the present disclosure. The growth inhibition curves for the compounds of the present disclosure were plotted using Prism GraphPad software, and the IC50 values were calculated therefrom.

The target of the next assay is T1, IRAK4 (Homo sapiens, UniProt Q9NWZ3).
T1 construct: expression of target proteins in cells; endogenous in cells
T1 sequence (Q9NWZ3 1-460): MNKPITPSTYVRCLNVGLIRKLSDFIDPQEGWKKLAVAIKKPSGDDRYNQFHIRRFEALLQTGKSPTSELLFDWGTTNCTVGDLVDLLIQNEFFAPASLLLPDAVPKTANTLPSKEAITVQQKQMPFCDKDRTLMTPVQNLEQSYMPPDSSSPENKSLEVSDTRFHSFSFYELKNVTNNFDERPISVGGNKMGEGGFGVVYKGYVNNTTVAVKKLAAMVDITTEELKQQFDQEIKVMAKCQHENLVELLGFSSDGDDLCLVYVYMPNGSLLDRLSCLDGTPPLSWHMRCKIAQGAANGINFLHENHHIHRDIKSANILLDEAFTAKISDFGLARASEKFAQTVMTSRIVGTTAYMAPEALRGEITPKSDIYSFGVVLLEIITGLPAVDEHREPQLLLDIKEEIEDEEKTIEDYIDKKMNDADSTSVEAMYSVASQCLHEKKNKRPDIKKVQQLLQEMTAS
Briefly: Western blot degradation of IRAK4. Format: cell-based. The note with it: hPBMC Cell; 24 hours. Summed up:
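Cells treated with compound, lysed, and target protein detected by Western blot (SDS-PAGE, nitrocellulose transfer). DC50 taken as the concentration giving band grayscale half that of DMSO control, estimated by concentration-response fitting; remaining protein (%) from target band normalised to internal control band; degradation (%) = 1 − remaining.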
A general note: Immunoblotting shows a protein as a band on a membrane.

The test system of assay [2] is Human T lymphocytic leukemia cell line (Jurkat). Briefly: Inhibition of Jurkat cell proliferation (CellTiter luminescent viability). Format: cell-based. The note with it: 96 hours, read-out: Inhibitory activity (IC50, nM) on tumor cell proliferation, Jurkat.
Assay [3] deals with Human large cell immunoblastic lymphoma cell line SR. Briefly: Inhibition of SR cell proliferation (CellTiter luminescent viability). The note with it: 96 hours; for IC50: Table IA1, IRAK4 inhibitor-based, read-out: Inhibitory activity (IC50, nM) on tumor cell proliferation, SR; for inhibition at 0.01 µM / inhibition at 0.5 µM: Homo sapiens, Table IB2, ALK inhibitor-based; for inhibition at 0.01 µM: 10 nM, read-out: Inhibition Rate at 10 nM (%); for inhibition at 0.5 µM: 500 nM, read-out: Inhibition Rate at 500 nM (%). Type of assay: cell-based. Summed up:
(§4)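 Cells are seeded in 96-well plates, cultured at 37 °C, 5% CO2, and treated next day with 5-fold serial compound dilutions (stock series from 2000 μM; 0.5 μL into 100 μL medium). Viability is read by CellTiter-Meiluncell luminescence after the set exposure, and IC50 is taken from growth-inhibition curves.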

Another assay concerns JEKO-1. As to the kind of experiment: Inhibition of JEKO-1 cell proliferation (CellTiter luminescent viability). The note with it: JEKO-1, 96 hours, read-out: Inhibitory activity (IC50, nM) on tumor cell proliferation, JEKO-1. Format: cell-based, human. On the procedure: as §1, §2, §3
The test system of assay [4] is Human Multiple myeloma cell line (MM.1S). Briefly: Inhibition of MM.1S cell proliferation (CellTiter luminescent viability). Format: cell-based. The note with it: 96 hours, read-out: Inhibitory activity (IC50, nM) on tumor cell proliferation, MM.1S. Summed up:
as §4

Assay [5] concerns Human non-small cell lung cancer cell line NCI-H2228. Briefly: Inhibition of H2228 cell proliferation (CellTiter luminescent viability). The note with it: Table IB2, ALK inhibitor-based, 96 hours; for inhibition at 0.01 µM: H2228, 10 nM, read-out: Inhibition Rate at 10 nM (%); for inhibition at 0.5 µM: H2228, 500 nM, read-out: Inhibition Rate at 500 nM (%). On the procedure:
as §1, §2, §3

For assay [6], the system named is Human myeloid monocytic leukemia cell line (MV-4-11). Briefly: Inhibition of MV-4-11 cell proliferation (CellTiter luminescent viability). The note with it: Homo sapiens, MV4-11, 96 hours; for inhibition at 0.01 µM: MV-4-11, 10 nM, read-out: Inhibition Rate at 10 nM (%); for inhibition at 0.5 µM: MV-4-11, 500 nM, read-out: Inhibition Rate at 500 nM (%). Type of assay: cell-based. Summed up: as §4

For assay [7], the system named is Human non-small cell lung cancer cell line NCI-H1975. Briefly: Inhibition of H1975 cell proliferation (CellTiter luminescent viability). The note with it: Table IC1, BTK inhibitor-based; H1975, 96 hours; read-out: Inhibitory activity (IC50, nM) on tumor cell proliferation, H1975. Format: cell-based. On the procedure: as §1, §2, §3
In assay [8] the test system is Human B-Cell Lymphoma Cells (RPMI-8226). Briefly: Inhibition of RPMI-8226 cell proliferation (CellTiter luminescent viability). Format: cell-based. The note with it: Table IA4, IRAK4 inhibitor-based, RPMI-8226, 500 nM, 96 hours, read-out: Inhibition Rate at 500 nM (%).
Assay in assay [9]: as above
Type of assay: cell-based. The note with it: Homo sapiens; Table IA4, IRAK4 inhibitor-based; RPMI-8226, 10 nM, 96 hours; read-out: Inhibition Rate at 10 nM (%).

The mark [10] stands for this setting: Table IA1, IRAK4 inhibitor-based compounds.
Setting [11] is: Table IA1, IRAK4 inhibitor-based.
Where [12] appears, read: Table IA3, IRAK4 inhibitor-based.

Where two headings read alike, the source gives them in different places.

In general, inhibition refers to the share of the control response that was lost under treatment.

With `O=C1CCN(N2Cc3cc(CN4CCC(N5CCN(c6ccc7c(c6)nc(NC(=O)c6cccc(C(F)(F)F)c6)n7[C@H]6CC[C@@H](CO)CC6)CC5)CC4)ccc3C2=O)C(=O)N1` [GT-05019, N-(5-(4-(1-((2-(2,4-dioxotetrahydropyrimidin-1(2H)-yl)-1-oxoisoindolin-5-yl)methyl)piperidin-4-yl)piperazin-1-yl)-1-((1s,4s)-4-(hydroxymethyl)cyclohexyl)-1H-benzo[d]imidazol-2-yl)-3-(trifluoromethyl)benzamide], the IC50 (in [1] (setting [10]); in assay [2] (setting [11]); in [3]; in the assay on JEKO-1 (setting [11]); in assay [4] (setting [11])) was 500 to 1000 nM each time. Moreover, at IRAK4, the “Degradation of substrate protein IRAK4 (substrate protein remaining %)” value is given as “A (0%≤substrate protein remaining %≤80%)”.
Turning to `COc1cc(N2CCC(N3CCN(Cc4ccc5c(c4)CN(N4CCC(=O)NC4=O)C5=O)CC3)CC2)ccc1Nc1ncc(Cl)c(Nc2ccccc2P(C)(C)=O)n1` [GT-08146, 1-(5-((4-(1-(4-((5-chloro-4-((2-(dimethylphosphoryl)phenyl)amino)pyrimidin-2-yl)amino)-3-methoxyphenyl)piperidin-4-yl)piperazin-1-yl)methyl)-1-oxoisoindolin-2-yl)dihydropyrimidine-2,4 (1H,3H)-dione], the inhibition at 0.01 µM in assay [5] was 20 to 30%; in assay [3] it was 45 to 55%; in [6] (Table IB2, ALK inhibitor-based), 15 to 20%. In addition, the inhibition at 0.5 µM lay in the range of 60 to 80% in assay [5]; 90 to 100% in assay [3]; 90 to 100% in assay [6] (Table IB2, ALK inhibitor-based).
On to `COc1cc(N2CCC(N3CCN(Cc4ccc5c(c4)C(=O)N(N4CCC(=O)NC4=O)C5=O)CC3)CC2)ccc1Nc1ncc(Cl)c(Nc2ccccc2P(C)(C)=O)n1` [GT-08147, 5-((4-(1-(4-((5-chloro-4-((2-(dimethylphosphoryl)phenyl)amino)pyrimidin-2-yl)amino)-3-methoxyphenyl)piperidin-4-yl)piperazin-1-yl)methyl)-2-(2,4-dioxotetrahydropyrimidin-1(2H)-yl)isoindoline-1,3-dione], for which the inhibition at 0.01 µM lay within 20 to 30% in assay [5]; 10 to 15% in assay [3]; 20 to 30% in assay [6] (Table IB2, ALK inhibitor-based). Further, the inhibition at 0.5 µM in [5] lay within 45 to 55%; in assay [3] it was 90 to 100%; in [6] (Table IB2, ALK inhibitor-based), 60 to 80%.
Regarding `COc1cc(N2CCC(N(C)Cc3ccc4c(c3)CN(N3CCC(=O)NC3=O)C4=O)CC2)ccc1Nc1ncc(Cl)c(Nc2ccccc2P(C)(C)=O)n1` [GT-08148, 1-(5-(((1-(4-((5-chloro-4-((2-(dimethylphosphoryl)phenyl)amino)pyrimidin-2-yl)amino)-3-methoxyphenyl)piperidin-4-yl)(methyl)amino)methyl)-1-oxoisoindolin-2-yl)dihydropyrimidine-2,4 (1H,3H)-dione], the inhibition at 0.01 µM lay in the range of 15 to 20% in assay [5]; 30 to 45% in [3]; 5 to 10% in assay [6] (Table IB2, ALK inhibitor-based). Also, the inhibition at 0.5 µM in assay [5] lay in the range of 45 to 55%; in assay [3], 90 to 100%; in assay [6] (Table IB2, ALK inhibitor-based) it was 60 to 80%.
As for `C=CC(=O)N1CCC(c2ccc(C(N)=O)c(-c3ccc(Oc4ccccc4)cc3)n2)CC1` [Orelabrutinib, reference compound], the IC50 in [7] is more than 10000 nM; in assay [1] (Table IC1, BTK inhibitor-based), more than 10000 nM; in assay [2] (Table IC1, BTK inhibitor-based), more than 10000 nM; with JEKO-1 (Table IC1, BTK inhibitor-based), more than 10000 nM; in [4] (Table IC1, BTK inhibitor-based), more than 10000 nM.
For the molecule `CC[C@@H]1[C@H](F)C(=O)N[C@@H]1COc1nccc2cc(C(N)=O)c(OC)cc12` [PF06650833, PF-06650833, reference compound], the IC50 in assay [1] (setting [10]) is 5000 to 10000 nM; in [2] (setting [11]), 5000 to 10000 nM; in [3], 1000 to 5000 nM; in the assay with JEKO-1 (setting [11]), 500 to 1000 nM; in assay [4] (setting [11]), more than 10000 nM. Also, the inhibition at 0.5 µM in assay [8] is 10 to 15%; in assay [6] (setting [12]), 20 to 36%. Moreover, the inhibition at 0.01 µM in assay [9] was 0 to 5%; in assay [6] (setting [12]), 20 to 36%.
`C=CC(=O)N1CCC[C@@H](n2nc(-c3ccc(Oc4ccccc4)cc3)c3c(N)ncnc32)C1` [ibrutinib, Ibrutinib, reference compound]: the IC50 in [7] was 1000 to 5000 nM; in assay [1] (Table IC1, BTK inhibitor-based), more than 10000 nM; in assay [2] (Table IC1, BTK inhibitor-based), more than 10000 nM; in the assay on JEKO-1 (Table IC1, BTK inhibitor-based), more than 10000 nM; in assay [4] (Table IC1, BTK inhibitor-based), more than 10000 nM.

These data come from US20260364184A1, “COMPOUND BASED ON OXOISOINDOLINYL-SUBSTITUTED TETRAHYDROPYRIMIDINE-DIONE AND USE THEREOF” (GLUETACS THERAPEUTICS (SHANGHAI) CO., LTD., priority 2023, published 2026).
